In patent US11679126B2, “Methods to enhance microvascular engraftment of bioengineered and primary tissues” (Children's Medical Center Corporation, priority 2016, dated 2023):

Columns and labels:
[1] = tested on: A-Grafts (assembled human vascular networks); test: A-Graft revascularization after implantation into nude mice; type: in vivo
Protocol: (§1) Photopolymerizable methacrylated gelatin (GelMA) hydrogel was synthesized as previously described (Chen, et al. Adv. Funct. Mater. 22: 2027-2039 (2012)). GelMA prepolymer solution was prepared in PBS at 80° C. (5 w/v % final) with photoinitiator Irgacure 2959 (0.5 w/v %; CIBA Chemicals), and then allowed to cool down to 37° C. in a water bath. ECFCs and MSCs (4×10^5 total; 1:1 ratio) were suspended in 200 μL of GelMA solution and the mixture was polymerized by exposure to 7.5 mW/cm^2 UV light for 15 s at 37° C. Polymerized cell-laden constructs were referred to as unassembled grafts or U-Grafts. Alternatively, on indicated experiments, U-Grafts were constructed with ice-cold Phenol Red-free Matrigel (BD Bioscience). […]
(§2) Microvessel density was reported as the average number of erythrocyte-filled vessels (vessels/mm^2) in H&E-stained sections from the middle of the implants as previously described (Melero-Martin, et al. Circ. Res. 103:194-202 (2008)). The entire area of each section was analyzed. On specified experiments, human-specific microvessel density was quantified by evaluation of slides immunostained for human-specific CD31 (h-CD31). Perfused microvessel density was measured by injection of FITC-labeled lectins (UEA-1 or Iso-B4) before euthanizing graft-bearing mice, followed by staining of lectin-labeled vessels with anti-UEA-1 or anti-FITC antibodies. […]

[2] = tested on: neutrophils; test: Neutrophil recruitment into implanted A-Grafts at day 2 (flow cytometry); type: in vivo, nude mice
Protocol: as §1
(§3) Grafts were removed from euthanized mice and cells were retrieved by enzymatic (1 mg/mL collagenase and 2.5 U/mL dispase) digestion for 1 h at 37° C. […] Retrieved cells were also stained for flow cytometry and analyzed using a Guava easyCyte 6HT/2L flow cytometer (Millipore Corporation, Billerica, Mass.) and FlowJo software (Tree Star Inc., Ashland, Oreg.). […] In indicated experiments, retrieved cells were sorted into mCD45+/mLy6G+(neutrophils) and mCD45+/mLy6G−cells by fluorescence-activated cell sorting (FACS) using a FACSAria II 5-LASER sorter system (BD Bioscience). Sorted cells were analyzed immediately for gene expression by qPCR. […]

[3] = tested on: CXCL1, CXCL8, and IL6; test: Human cytokine protein array of conditioned media from A-Grafts; type: cell-based; conditions: A-Grafts exposed for 24 h
Protocol: as §1, with “Bioscience). Assembled grafts or A-Grafts were constructed by culturing U-Grafts in vitro for 7 days using EGM2 with […]. A-Grafts contained easily observable, fully-assembled vascular networks. Both, U-Grafts and A-Grafts were subcutaneously implanted into back of 6-week-old male athymic nu/nu mice for engraftment studies. On specified experiments, DsRed-labeled ECFCs were used to visualize the formation of assembled vascular networks in A-Grafts.” for “Bioscience).”
The presence of selected cytokines was evaluated in samples of CM with human cytokine protein arrays (R&D Systems Inc.) according to the manufacturer's instructions. […]

[4] = tested on: neutrophils; test: Neutrophil recruitment plug assay; type: in vivo, nu/nu mice; conditions: Matrigel plugs containing CM, day 2
Protocol: Concentrated CM (50 μL) was mixed with 200-μL of Matrigel and injected subcutaneously into nu/nu mice. After 2 days, plugs were explanted and infiltrated cells were retrieved by enzymatic digestion and subjected to flow cytometric analysis. Concentrated basal media (basal-M: EBM-2, 5% FBS) served as control. In indicated experiments, neutralizing antibodies against IL6, CXCL1 or CXCL8 (5 μg/antibody/plug) were added to concentrated CM 30 min prior to implantation. Individual neutralizing antibodies and the combination of three were compared.

[5] = tested on: m-Islets endogenous gfp+ microvessels; test: Vascular sprouting of m-Islets embedded in hydrogel in vitro; type: cell-based, mouse; conditions: 7 days in vitro
Description: In order to develop an interface for the engraftment of islets, we embedded isolated m-Islets in our hydrogel in the presence or absence of DAPT (a γ-secretase inhibitor) and examined the effect on the vasculature of islets for 7 days. […] This is consistent with previous data in which transiently blocking Notch enhanced the revascularization potential of A-grafts (FIG. 14) (52). We also examined the effect of unassembled DsRed-ECFCs (FIG. 19B). […] Moreover, the newly formed ECFC-lined vessels (DsRed+) interacted with the gfp+ vasculature of the m-Islets, and this interconnectivity was enhanced in the presence of DAPT (FIG. 19B).

[6] = tested on: U-Grafts (human ECFCs + MSCs); test: U-Graft vascularization after subcutaneous implantation into treated nude mice; type: in vivo; design: number of perfused vessels at day 7 in U-grafts: dose or concentration left out as unconfirmed; conditions: for U-Graft vascularization / microvessel density compared with control: U-Grafts in treated mice, day 7
Protocol: as §1, with “Bioscience). Assembled grafts or A-Grafts were constructed by culturing U-Grafts in vitro for 7 days using EGM2 with […]. A-Grafts contained easily observable, fully-assembled vascular networks. Both, U-Grafts and A-Grafts were subcutaneously implanted into back of 6-week-old male athymic nu/nu mice for engraftment studies. On specified experiments, DsRed-labeled ECFCs were used to visualize the formation of assembled vascular networks in A-Grafts.” for “Bioscience).”
as §2
[…] Neutrophil recruitment at day 2 and graft vascularization at day 7 were measured as described before. […]

[7] = tested on: neutrophils; test: Neutrophil recruitment into implanted U-Grafts at day 2 (flow cytometry); type: in vivo, nude mice; conditions: 7.5 mg/kg intraperitoneally daily
Protocol: as §1, §3

[8] = molecular target: T1, CXCR2 (Homo sapiens, UniProt P25025); conditions: in vitro and in vivo, previous studies; cited from earlier work
T1 sequence (P25025 1-360): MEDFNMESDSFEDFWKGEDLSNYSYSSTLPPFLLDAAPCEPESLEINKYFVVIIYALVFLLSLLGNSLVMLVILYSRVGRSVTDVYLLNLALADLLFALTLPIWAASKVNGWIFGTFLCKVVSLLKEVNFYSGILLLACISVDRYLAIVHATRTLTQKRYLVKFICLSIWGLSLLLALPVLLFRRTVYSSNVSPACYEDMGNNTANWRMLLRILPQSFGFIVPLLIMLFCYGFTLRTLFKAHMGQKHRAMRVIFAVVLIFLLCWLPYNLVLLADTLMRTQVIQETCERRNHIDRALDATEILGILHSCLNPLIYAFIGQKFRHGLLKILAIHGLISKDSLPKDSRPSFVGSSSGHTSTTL

| Compound | perivascular coverage (α-SMA+ cells) of human vessels in A-Grafts ([1]; day 7, A-Grafts treated 24 h before implantation) | perfused microvessel networks in A-Grafts ([1]; day 7 in vivo, compared with untreated / basal-M A-Grafts) | neutrophils in A-Grafts compared with control [2] | expression of cytokines in conditioned media of A-Grafts [3] | neutrophil recruitment into subcutaneous plugs [4] | sprouting activity of endogenous gfp+ microvessels (number and length of sprouts) ([5]; m-Islets in hydrogel, vs untreated islets) | interconnectivity between ECFC-lined vessels (DsRed+) and m-Islets vasculature (gfp+) ([5]; m-Islets with unassembled DsRed-ECFCs in hydrogel) | U-Graft vascularization / microvessel density compared with control [6] | neutrophil presence in implanted U-Grafts [7] | neutrophil chemotaxis in response to CXCL8 [8] | number of perfused vessels at day 7 in U-grafts ([6]; mice treated daily, intraperitoneal) |
| --- | --- | --- | --- | --- | --- | --- | --- | --- | --- | --- | --- |
| C[C@H](NC(=O)Cc1cc(F)cc(F)c1)C(=O)N[C@H](C(=O)OC(C)(C)C)c1ccccc1 [DAPT, N—[N-(3,5-Difluorophenylacetyl-L-alanyl)]-S-phenylglycine t-Butyl ester] | did not compromise proper perivascular coverage | more extensive networks of perfused microvessels | significantly more | reactivated the expression of several cytokines | recruited significantly more neutrophils | significantly higher | enhanced | – | – | – | – |
| O=C(Nc1ccc([N+](=O)[O-])cc1O)Nc1ccccc1Br [SB225002] | – | – | – | – | – | – | – | significantly lower | significantly impaired | effectively inhibits | – |
| NC(=O)c1ccc(-c2nc(-c3ccccn3)c(-c3ccc4c(c3)OCO4)[nH]2)cc1 [SB432542] | – | – | – | – | – | – | – | completely abrogated | – | – | insignificant |
